In patent publication US11000033B2, “Ketone or oxime compound, and herbicide” (NISSAN CHEMICAL CORPORATION, priority 2014, dated 2021):

How the values were obtained:
Assay type in all cases: in vivo
Digitaria ciliaris = assay: Test Example 4: herbicidal effect by soil treatment (symbol F); details: application herbicide amount 320 g/ha
Procedure, shortened: (§1)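 Seeds were sown in sterilized diluvial soil, covered with about 1.5 cm of soil, and the soil surface was sprayed with a water-diluted emulsion of the compound at a predetermined rate. Plants grew in a greenhouse at 25° C. to 30° C.; effects were scored visually 3 weeks after application.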

Avena fatua = assay: Test Example 4: herbicidal effect by soil treatment (symbol I); details: application herbicide amount 320 g/ha
Procedure, shortened: as §1

Alopecurus myosuroides = assay: Test Example 4: herbicidal effect by soil treatment (symbol J); details: application herbicide amount 320 g/ha
Procedure, shortened: as §1

Abutilon theophrasti [1] = assay: Test Example 4: herbicidal effect by soil treatment (symbol M); details: application herbicide amount 320 g/ha
Procedure, shortened: as §1

Chenopodium album = assay: Test Example 4: herbicidal effect by soil treatment (symbol O); details: application herbicide amount 320 g/ha
Procedure, shortened: as §1

Galium spurium = assay: Test Example 4: herbicidal effect by soil treatment (symbol Q); details: application herbicide amount 320 g/ha
Procedure, shortened: as §1

rice = assay: Test Example 4: effect on crop by soil treatment (symbol b); details: application herbicide amount 320 g/ha
Procedure, shortened: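 Grown at 25° C. to 30° C. in a greenhouse, the crops came from seed sown spot-wise in sterilized diluvial soil under roughly 1.5 cm of covering soil.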

[2] = system: Echinochloa crus-galli var. crus-galli; assay: Test Example 5: herbicidal effect by foliage application, plastic box (symbol H); details: 320 g/ha, 3 weeks after application
Procedure, shortened: (§2)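 Sowing in sterilized diluvial soil, 14 days' greenhouse growth at 25° C. to 30° C., then uniform small-sprayer foliar application of aqueous emulsion dilution; plants scored three weeks afterwards.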

Abutilon theophrasti [3] = assay: Test Example 5: herbicidal effect by foliage application, plastic box (symbol M); details: 320 g/ha, 3 weeks after application
Procedure, shortened: as §2

Amaranthus retroflexus = assay: Test Example 5: herbicidal effect by foliage application, plastic box (symbol N); details: 320 g/ha, 3 weeks after application
Procedure, shortened: as §2

beet = assay: Test Example 5: effect on crop by foliage application, plastic box (symbol f); details: 320 g/ha, 3 weeks after application
Procedure, shortened: (§3)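 Seeds were sown in spots in sterilized diluvial soil held in a plastic box 21 cm × 13 cm × 7 cm deep, covered with about 1.5 cm of soil, and grown in a greenhouse at 25° C. to 30° C.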

rapeseed = assay: Test Example 5: effect on crop by foliage application, plastic box (symbol g); details: 320 g/ha, 3 weeks after application
Procedure, shortened: as §3

[4] = system: Echinochloa oryzacola Vasing.; assay: Test Example 1: herbicidal activity, application before weed generation in submerged conditions (symbol A); details: application herbicide amount 320 g/ha
Procedure, shortened: (§4)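 Scores run 0 to 5 by herbicidal ratio, with 5 meaning 90% or more and 0 meaning 5% or lower, read 3 weeks after treatment. Compound was applied as a diluted emulsion to the water surface of submerged alluvial-soil pots on the day weed seeds were sown.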

Monochoria vaginalis [5] = assay: Test Example 1: herbicidal activity, application before weed generation in submerged conditions (symbol C); details: application herbicide amount 320 g/ha
Procedure, shortened: as §4

[6] = system: Echinochloa oryzacola Vasing.; assay: Test Example 2: herbicidal activity, application during weed generation in submerged conditions (symbol A); details: Table 23; application herbicide amount 320 g/ha; grade 0-5 by criteria of Test Example 1
Procedure, shortened: (§5)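 Alluvial soil in pots was flooded to a 4 cm water depth and sown with a mix of the three weed species, then grown in a greenhouse at 25° C. to 30° C. At the one- to two-leaf stage, an emulsifiable formulation diluted in water to a set dose was applied to the water surface. Effects were scored visually 3 weeks later.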

Scirpus juncoides = assay: Test Example 2: herbicidal activity, application during weed generation in submerged conditions (symbol B); details: Table 23; application herbicide amount 320 g/ha; grade 0-5 by criteria of Test Example 1
Procedure, shortened: as §5

Monochoria vaginalis [7] = assay: Test Example 2: herbicidal activity, application during weed generation in submerged conditions (symbol C); details: Table 23; application herbicide amount 320 g/ha; grade 0-5 by criteria of Test Example 1
Procedure, shortened: as §5

CC(=O)CC1CC(O)=C(c2c(C)cc(-c3ncccn3)cc2C)C1=O (stereo not drawn) [7-017]
Herbicidal effect grade, F: Digitaria ciliaris (Digitaria ciliaris): 4 (Herbicidal ratio of 70% or higher and lower than 90%)
Herbicidal effect grade, I: Avena fatua (Avena fatua): 0 (Herbicidal ratio of 5% or lower (almost no effect))
Herbicidal effect grade, J: Alopecurus myosuroides (Alopecurus myosuroides): 0 (Herbicidal ratio of 5% or lower (almost no effect))
Herbicidal effect grade, M: Abutilon theophrasti (Abutilon theophrasti [1]): 0 (Herbicidal ratio of 5% or lower (almost no effect))
Herbicidal effect grade, O: Chenopodium album (Chenopodium album): 0 (Herbicidal ratio of 5% or lower (almost no effect))
Herbicidal effect grade, Q: Galium spurium (Galium spurium): 0 (Herbicidal ratio of 5% or lower (almost no effect))
Effect on crop grade, b: directly sowed rice plant (rice): 0 (Herbicidal ratio of 5% or lower (almost no effect))
H: Echinochloa crus-galli var. crus-galli, herbicidal effect (criteria of Test Example 1) [2]: 5 (Herbicidal ratio of 90% or more (almost completely withered))
M: Abutilon theophrasti, herbicidal effect (criteria of Test Example 1) (Abutilon theophrasti [3]): 0 (Herbicidal ratio of 5% or lower (almost no effect))
N: Amaranthus retroflexus, herbicidal effect (criteria of Test Example 1) (Amaranthus retroflexus): 0 (Herbicidal ratio of 5% or lower (almost no effect))
f: beet, effect on crop (criteria of Test Example 1) (beet): 0 (Herbicidal ratio of 5% or lower (almost no effect))
g: rapeseed, effect on crop (criteria of Test Example 1) (rapeseed): 0 (Herbicidal ratio of 5% or lower (almost no effect))

CON=C(C)CC1CC(OC(=O)COc2cccc(C#N)c2)=C(c2c(C)cc(C)cc2C)C1=O (stereo not drawn) [1-074]
Herbicidal effect grade, A: Echinochloa oryzacola Vasing. [4]: 5 (Herbicidal ratio of 90% or more (almost completely withered))
Herbicidal effect grade, C: Monochoria vaginalis (Monochoria vaginalis [5]): 4 (Herbicidal ratio of 70% or higher and lower than 90%)
Herbicidal effect grade, A: Echinochloa oryzacola Vasing. [6]: 5 (Herbicidal ratio of 90% or more (almost completely withered))
Herbicidal effect grade, B: Scirpus juncoides (Scirpus juncoides): 4 (Herbicidal ratio of 70% or higher and lower than 90%)
F (Digitaria ciliaris) herbicidal effect grade (Digitaria ciliaris): 5 (Herbicidal ratio of 90% or more (almost completely withered))
I (Avena fatua) herbicidal effect grade (Avena fatua): 4 (Herbicidal ratio of 70% or higher and lower than 90%)
J (Alopecurus myosuroides) herbicidal effect grade (Alopecurus myosuroides): 5 (Herbicidal ratio of 90% or more (almost completely withered))
M (Abutilon theophrasti) herbicidal effect grade (Abutilon theophrasti [1]): 5 (Herbicidal ratio of 90% or more (almost completely withered))
O (Chenopodium album) herbicidal effect grade (Chenopodium album): 0 (Herbicidal ratio of 5% or lower (almost no effect))
Q (Galium spurium) herbicidal effect grade (Galium spurium): 0 (Herbicidal ratio of 5% or lower (almost no effect))
b (directly sowed rice plant) effect on crop grade (rice): 5 (Herbicidal ratio of 90% or more (almost completely withered))
H: Echinochloa crus-galli var. crus-galli, herbicidal effect (criteria 0-5) [2]: 5 (Herbicidal ratio of 90% or more (almost completely withered))
M: Abutilon theophrasti, herbicidal effect (criteria 0-5) (Abutilon theophrasti [3]): 3 (Herbicidal ratio of 40% or higher and lower than 70%)
N: Amaranthus retroflexus, herbicidal effect (criteria 0-5) (Amaranthus retroflexus): 0 (Herbicidal ratio of 5% or lower (almost no effect))
f: beet, effect on crop (criteria 0-5) (beet): 0 (Herbicidal ratio of 5% or lower (almost no effect))
g: rapeseed, effect on crop (criteria 0-5) (rapeseed): 4 (Herbicidal ratio of 70% or higher and lower than 90%)

CC#Cc1cc(C)c(C2=C(OC(=O)COc3ccccc3)CC(CC(=NOC)C(C)C)C2=O)c(C)c1 (stereo not drawn) [9-003]
Herbicidal effect grade, A: Echinochloa oryzacola Vasing. [4]: 5 (Herbicidal ratio of 90% or more (almost completely withered))
Herbicidal effect grade, C: Monochoria vaginalis (Monochoria vaginalis [5]): 1 (Herbicidal ratio of 5% or higher and lower than 20%)
Herbicidal effect grade, A: Echinochloa oryzacola Vasing. [6]: 5 (Herbicidal ratio of 90% or more (almost completely withered))
Herbicidal effect grade, B: Scirpus juncoides (Scirpus juncoides): 4 (Herbicidal ratio of 70% or higher and lower than 90%)
Herbicidal effect grade, F: Digitaria ciliaris (Digitaria ciliaris): 5 (Herbicidal ratio of 90% or more (almost completely withered))
Herbicidal effect grade, I: Avena fatua (Avena fatua): 3 (Herbicidal ratio of 40% or higher and lower than 70%)
Herbicidal effect grade, J: Alopecurus myosuroides (Alopecurus myosuroides): 5 (Herbicidal ratio of 90% or more (almost completely withered))
Herbicidal effect grade, M: Abutilon theophrasti (Abutilon theophrasti [1]): 0 (Herbicidal ratio of 5% or lower (almost no effect))
Herbicidal effect grade, O: Chenopodium album (Chenopodium album): 0 (Herbicidal ratio of 5% or lower (almost no effect))
Herbicidal effect grade, Q: Galium spurium (Galium spurium): 0 (Herbicidal ratio of 5% or lower (almost no effect))
Effect on crop grade, b: directly sowed rice plant (rice): 5 (Herbicidal ratio of 90% or more (almost completely withered))
H: Echinochloa crus-galli var. crus-galli, herbicidal effect grade [2]: 5 (Herbicidal ratio of 90% or more (almost completely withered))
M: Abutilon theophrasti, herbicidal effect grade (Abutilon theophrasti [3]): 4 (Herbicidal ratio of 70% or higher and lower than 90%)
N: Amaranthus retroflexus, herbicidal effect grade (Amaranthus retroflexus): 0 (Herbicidal ratio of 5% or lower (almost no effect))
f: beet, effect on crop grade (beet): 1 (Herbicidal ratio of 5% or higher and lower than 20%)
g: rapeseed, effect on crop grade (rapeseed): 4 (Herbicidal ratio of 70% or higher and lower than 90%)

CC(CC1CC(O)=C(c2c(C)cc(Br)cc2C)C1=O)=NOCC(=O)N(C)C (mixture of isomers) [9-029]
Herbicidal effect grade, A: Echinochloa oryzacola Vasing. [6]: 0 (Herbicidal ratio of 5% or lower (almost no effect))
Herbicidal effect grade, B: Scirpus juncoides (Scirpus juncoides): 0 (Herbicidal ratio of 5% or lower (almost no effect))
Herbicidal effect grade, C: Monochoria vaginalis (Monochoria vaginalis [7]): 0 (Herbicidal ratio of 5% or lower (almost no effect))
Herbicidal effect grade, F: Digitaria ciliaris (Digitaria ciliaris): 3 (Herbicidal ratio of 40% or higher and lower than 70%)
Herbicidal effect grade, I: Avena fatua (Avena fatua): 0 (Herbicidal ratio of 5% or lower (almost no effect))
Herbicidal effect grade, J: Alopecurus myosuroides (Alopecurus myosuroides): 3 (Herbicidal ratio of 40% or higher and lower than 70%)
Herbicidal effect grade, M: Abutilon theophrasti (Abutilon theophrasti [1]): 0 (Herbicidal ratio of 5% or lower (almost no effect))
Herbicidal effect grade, O: Chenopodium album (Chenopodium album): 0 (Herbicidal ratio of 5% or lower (almost no effect))
Herbicidal effect grade, Q: Galium spurium (Galium spurium): 0 (Herbicidal ratio of 5% or lower (almost no effect))
Effect on crop grade, b: directly sowed rice plant (rice): 1 (Herbicidal ratio of 5% or higher and lower than 20%)
H: Echinochloa crus-galli var. crus-galli, herbicidal effect grade [2]: 3 (Herbicidal ratio of 40% or higher and lower than 70%)
M: Abutilon theophrasti, herbicidal effect grade (Abutilon theophrasti [3]): 0 (Herbicidal ratio of 5% or lower (almost no effect))
N: Amaranthus retroflexus, herbicidal effect grade (Amaranthus retroflexus): 0 (Herbicidal ratio of 5% or lower (almost no effect))
f: beet, effect on crop grade (beet): 0 (Herbicidal ratio of 5% or lower (almost no effect))
g: rapeseed, effect on crop grade (rapeseed): 4 (Herbicidal ratio of 70% or higher and lower than 90%)

CCCCCCCCC(=O)OC1=C(c2c(C)cc(C)cc2C)C(=O)C(CC(C)=NOC)C1 (stereo not drawn) [1-033]
Herbicidal effect grade, A: Echinochloa oryzacola Vasing. [4]: 5 (Herbicidal ratio of 90% or more (almost completely withered))
Herbicidal effect grade, C: Monochoria vaginalis (Monochoria vaginalis [5]): 1 (Herbicidal ratio of 5% or higher and lower than 20%)
Herbicidal effect grade, A: Echinochloa oryzacola Vasing. [6]: 5 (Herbicidal ratio of 90% or more (almost completely withered))
Herbicidal effect grade, B: Scirpus juncoides (Scirpus juncoides): 4 (Herbicidal ratio of 70% or higher and lower than 90%)
Herbicidal effect grade, C: Monochoria vaginalis (Monochoria vaginalis [7]): 2 (Herbicidal ratio of 20% or higher and lower than 40%)
F (Digitaria ciliaris) herbicidal effect grade (Digitaria ciliaris): 5 (Herbicidal ratio of 90% or more (almost completely withered))
I (Avena fatua) herbicidal effect grade (Avena fatua): 4 (Herbicidal ratio of 70% or higher and lower than 90%)
J (Alopecurus myosuroides) herbicidal effect grade (Alopecurus myosuroides): 5 (Herbicidal ratio of 90% or more (almost completely withered))
M (Abutilon theophrasti) herbicidal effect grade (Abutilon theophrasti [1]): 5 (Herbicidal ratio of 90% or more (almost completely withered))
Q (Galium spurium) herbicidal effect grade (Galium spurium): 3 (Herbicidal ratio of 40% or higher and lower than 70%)
b (directly sowed rice plant) effect on crop grade (rice): 5 (Herbicidal ratio of 90% or more (almost completely withered))
H: Echinochloa crus-galli var. crus-galli, herbicidal effect grade [2]: 5 (Herbicidal ratio of 90% or more (almost completely withered))
M: Abutilon theophrasti, herbicidal effect grade (Abutilon theophrasti [3]): 4 (Herbicidal ratio of 70% or higher and lower than 90%)
N: Amaranthus retroflexus, herbicidal effect grade (Amaranthus retroflexus): 4 (Herbicidal ratio of 70% or higher and lower than 90%)
f: beet, effect on crop grade (beet): 3 (Herbicidal ratio of 40% or higher and lower than 70%)
g: rapeseed, effect on crop grade (rapeseed): 4 (Herbicidal ratio of 70% or higher and lower than 90%)
